In the supplement of paper PMC11424490:

Assays:
Experiment in all cases: combination cScore with adagrasib (Bliss gap around IC50) (%PoC); higher = stronger additive effect
NCI-H2122 = test system: NCI-H2122
Summary of the method: (§1)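 NCI-H2122, NCI-H358 and SW837 cells were plated in 384-well plates at 500 or 800 cells per well, treated with concentration matrices after 24 h, and grown for 72 h (SW837 for 144 h). Luminescence from CellTiter-Glo was expressed as percent of control relative to vehicle wells and fitted with four-parameter curves. The score is the mean Bliss-independence gap, expected minus measured viability, across a field around both monotherapy IC50 values, or across the top concentrations where no IC50 was reached.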

NCI-H358 = test system: NCI-H358
Summary of the method: as §1

SW837 = test system: SW837
Summary of the method: as §1

Cc1nc(NC(=O)N2CCC[C@H]2C(N)=O)sc1-c1ccnc(C(C)(C)C(F)(F)F)c1 [BYL-719] + C=C(F)C(=O)N1CCN(c2nc(OC[C@@H]3CCCN3C)nc3c2CCN(c2cccc4cccc(Cl)c24)C3)C[C@@H]1CC#N [adagrasib]
combination cScore with adagrasib (NCI-H2122): 14.3
combination cScore with adagrasib (NCI-H358): 3.99
combination cScore with adagrasib (SW837): 17

COC(=O)[C@]12CCC(C)(C)C[C@H]1[C@H]1C(=O)C=C3[C@@]4(C)C=C(C#N)C(=O)C(C)(C)[C@@H]4CC[C@@]3(C)[C@]1(C)CC2 [Bardoxolone methyl] + C=C(F)C(=O)N1CCN(c2nc(OC[C@@H]3CCCN3C)nc3c2CCN(c2cccc4cccc(Cl)c24)C3)C[C@@H]1CC#N [adagrasib]
combination cScore with adagrasib (NCI-H2122): 5.12
combination cScore with adagrasib (NCI-H358): -4.25
combination cScore with adagrasib (SW837): 0.43

O=C(/C=C/c1cccc(S(=O)(=O)Nc2ccccc2)c1)NO [Belinostat] + C=C(F)C(=O)N1CCN(c2nc(OC[C@@H]3CCCN3C)nc3c2CCN(c2cccc4cccc(Cl)c24)C3)C[C@@H]1CC#N [adagrasib]
combination cScore with adagrasib (NCI-H2122): 7.12
combination cScore with adagrasib (NCI-H358): -4.65
combination cScore with adagrasib (SW837): 5.49

Cc1c(N)nc([C@H](CC(N)=O)NC[C@H](N)C(N)=O)nc1C(=O)N[C@H](C(=O)N[C@H](C)[C@@H](O)[C@H](C)C(=O)N[C@H](C(=O)NCCc1nc(-c2nc(C(=O)NCCC[S+](C)C)cs2)cs1)[C@@H](C)O)[C@@H](OC1OC(CO)C(O)C(O)C1OC1OC(CO)C(O)C(OC(N)=O)C1O)c1cnc[nH]1 (stereo not given in full) [Bleomycin] + C=C(F)C(=O)N1CCN(c2nc(OC[C@@H]3CCCN3C)nc3c2CCN(c2cccc4cccc(Cl)c24)C3)C[C@@H]1CC#N [adagrasib]
combination cScore with adagrasib (NCI-H2122): 17.2
combination cScore with adagrasib (NCI-H358): -5.7
combination cScore with adagrasib (SW837): 7.34

CC(C)C[C@H](NC(=O)[C@H](Cc1ccccc1)NC(=O)c1cnccn1)B(O)O [Bortezomib] + C=C(F)C(=O)N1CCN(c2nc(OC[C@@H]3CCCN3C)nc3c2CCN(c2cccc4cccc(Cl)c24)C3)C[C@@H]1CC#N [adagrasib]
combination cScore with adagrasib (NCI-H2122): 4.5
combination cScore with adagrasib (NCI-H358): 0
combination cScore with adagrasib (SW837): -1.68

COc1cc(Nc2c(C#N)cnc3cc(OCCCN4CCN(C)CC4)c(OC)cc23)c(Cl)cc1Cl [Bosutinib] + C=C(F)C(=O)N1CCN(c2nc(OC[C@@H]3CCCN3C)nc3c2CCN(c2cccc4cccc(Cl)c24)C3)C[C@@H]1CC#N [adagrasib]
combination cScore with adagrasib (NCI-H2122): 14.5
combination cScore with adagrasib (NCI-H358): 1.58
combination cScore with adagrasib (SW837): 6.35

CC[C@H](Nc1ncnc2[nH]cnc12)c1nc2cccc(F)c2c(=O)n1-c1ccccc1 [Cal-101] + C=C(F)C(=O)N1CCN(c2nc(OC[C@@H]3CCCN3C)nc3c2CCN(c2cccc4cccc(Cl)c24)C3)C[C@@H]1CC#N [adagrasib]
combination cScore with adagrasib (NCI-H2122): 14.1
combination cScore with adagrasib (NCI-H358): 5.08
combination cScore with adagrasib (SW837): 1.53

O=P1(N(CCCl)CCCl)NCCCO1 (stereo not given) [Cyclophosphamide] + C=C(F)C(=O)N1CCN(c2nc(OC[C@@H]3CCCN3C)nc3c2CCN(c2cccc4cccc(Cl)c24)C3)C[C@@H]1CC#N [adagrasib]
combination cScore with adagrasib (NCI-H2122): -0.77
combination cScore with adagrasib (NCI-H358): -0.63
combination cScore with adagrasib (SW837): -0.5

Cc1nc(Nc2ncc(C(=O)Nc3c(C)cccc3Cl)s2)cc(N2CCN(CCO)CC2)n1 [Dasatinib] + C=C(F)C(=O)N1CCN(c2nc(OC[C@@H]3CCCN3C)nc3c2CCN(c2cccc4cccc(Cl)c24)C3)C[C@@H]1CC#N [adagrasib]
combination cScore with adagrasib (NCI-H2122): 42
combination cScore with adagrasib (NCI-H358): 8.94
combination cScore with adagrasib (SW837): 14.7

COc1cccc2c1C(=O)c1c(O)c3c(c(O)c1C2=O)C[C@@](O)(C(C)=O)C[C@@H]3O[C@H]1C[C@H](N)[C@H](O)[C@H](C)O1 [Daunorubicin] + C=C(F)C(=O)N1CCN(c2nc(OC[C@@H]3CCCN3C)nc3c2CCN(c2cccc4cccc(Cl)c24)C3)C[C@@H]1CC#N [adagrasib]
combination cScore with adagrasib (NCI-H2122): 4.15
combination cScore with adagrasib (NCI-H358): -0.64
combination cScore with adagrasib (SW837): 4.77

C[C@H](Nc1ncnc2nc[nH]c12)c1cc2cccc(Cl)c2c(=O)n1-c1ccccc1 [Duvelisib] + C=C(F)C(=O)N1CCN(c2nc(OC[C@@H]3CCCN3C)nc3c2CCN(c2cccc4cccc(Cl)c24)C3)C[C@@H]1CC#N [adagrasib]
combination cScore with adagrasib (NCI-H2122): 15.9
combination cScore with adagrasib (NCI-H358): 4.67
combination cScore with adagrasib (SW837): 12.8

C#Cc1cccc(Nc2ncnc3cc(OCCOC)c(OCCOC)cc23)c1 [Erlotinib] + C=C(F)C(=O)N1CCN(c2nc(OC[C@@H]3CCCN3C)nc3c2CCN(c2cccc4cccc(Cl)c24)C3)C[C@@H]1CC#N [adagrasib]
combination cScore with adagrasib (NCI-H2122): 14.9
combination cScore with adagrasib (NCI-H358): 10
combination cScore with adagrasib (SW837): 19.4

COc1cc(Nc2ncc(F)c(Nc3ccc4c(n3)N(COP(=O)(O)O)C(=O)C(C)(C)O4)n2)cc(OC)c1OC [Fostamatinib] + C=C(F)C(=O)N1CCN(c2nc(OC[C@@H]3CCCN3C)nc3c2CCN(c2cccc4cccc(Cl)c24)C3)C[C@@H]1CC#N [adagrasib]
combination cScore with adagrasib (NCI-H2122): 17.4
combination cScore with adagrasib (NCI-H358): 3.37
combination cScore with adagrasib (SW837): 7.91

C[C@H](Nc1ccc2c(c1)OCCn1cc(N3C(=O)OC[C@H]3C(F)F)nc1-2)C(N)=O [GDC-0077] + C=C(F)C(=O)N1CCN(c2nc(OC[C@@H]3CCCN3C)nc3c2CCN(c2cccc4cccc(Cl)c24)C3)C[C@@H]1CC#N [adagrasib]
combination cScore with adagrasib (NCI-H2122): 22.2
combination cScore with adagrasib (NCI-H358): 5.51
combination cScore with adagrasib (SW837): 5.13

CCCc1cc(C)[nH]c(=O)c1CNC(=O)c1cc(-c2ccnc(N3CCN(C)CC3)c2)cc2c1cnn2C(C)C [GSK343] + C=C(F)C(=O)N1CCN(c2nc(OC[C@@H]3CCCN3C)nc3c2CCN(c2cccc4cccc(Cl)c24)C3)C[C@@H]1CC#N [adagrasib]
combination cScore with adagrasib (NCI-H2122): 15.8
combination cScore with adagrasib (NCI-H358): 4.64
combination cScore with adagrasib (SW837): -0.82

COc1cc2ncnc(Nc3ccc(F)c(Cl)c3)c2cc1OCCCN1CCOCC1 [Gefitinib] + C=C(F)C(=O)N1CCN(c2nc(OC[C@@H]3CCCN3C)nc3c2CCN(c2cccc4cccc(Cl)c24)C3)C[C@@H]1CC#N [adagrasib]
combination cScore with adagrasib (NCI-H2122): 15.8
combination cScore with adagrasib (NCI-H358): 12.5
combination cScore with adagrasib (SW837): 23.8

CCS(=O)(=O)Nc1ccc2c(c1)/C(=C(/Nc1ccc(CN3CCCCC3)cc1)c1ccccc1)C(=O)N2 [Hesperadin] + C=C(F)C(=O)N1CCN(c2nc(OC[C@@H]3CCCN3C)nc3c2CCN(c2cccc4cccc(Cl)c24)C3)C[C@@H]1CC#N [adagrasib]
combination cScore with adagrasib (NCI-H2122): 8.14
combination cScore with adagrasib (NCI-H358): 0.47
combination cScore with adagrasib (SW837): 0.27

O=C(O)CNC(=O)c1c(O)c2ccccc2n(Cc2ccccc2)c1=O [IOX2] + C=C(F)C(=O)N1CCN(c2nc(OC[C@@H]3CCCN3C)nc3c2CCN(c2cccc4cccc(Cl)c24)C3)C[C@@H]1CC#N [adagrasib]
combination cScore with adagrasib (NCI-H2122): 25.2
combination cScore with adagrasib (NCI-H358): 0.22
combination cScore with adagrasib (SW837): 13.4

C[C@H](NC(=O)c1c(N)nn2cccnc12)c1cc2cccc(C#Cc3cnn(C)c3)c2c(=O)n1-c1ccccc1 [IPI-549] + C=C(F)C(=O)N1CCN(c2nc(OC[C@@H]3CCCN3C)nc3c2CCN(c2cccc4cccc(Cl)c24)C3)C[C@@H]1CC#N [adagrasib]
combination cScore with adagrasib (NCI-H2122): 13
combination cScore with adagrasib (NCI-H358): -0.57
combination cScore with adagrasib (SW837): 5.62

C=CC(=O)N1CCC[C@@H](n2nc(-c3ccc(Oc4ccccc4)cc3)c3c(N)ncnc32)C1 [Ibrutinib] + C=C(F)C(=O)N1CCN(c2nc(OC[C@@H]3CCCN3C)nc3c2CCN(c2cccc4cccc(Cl)c24)C3)C[C@@H]1CC#N [adagrasib]
combination cScore with adagrasib (NCI-H2122): 26.9
combination cScore with adagrasib (NCI-H358): 9.97
combination cScore with adagrasib (SW837): 2.16

CS(=O)(=O)CCNCc1ccc(-c2ccc3ncnc(Nc4ccc(OCc5cccc(F)c5)c(Cl)c4)c3c2)o1 [Lapatinib] + C=C(F)C(=O)N1CCN(c2nc(OC[C@@H]3CCCN3C)nc3c2CCN(c2cccc4cccc(Cl)c24)C3)C[C@@H]1CC#N [adagrasib]
combination cScore with adagrasib (NCI-H2122): 18.6
combination cScore with adagrasib (NCI-H358): 11.3
combination cScore with adagrasib (SW837): 11.2

Cc1c(CN2CCC(Nc3ncnc4sc(CC(F)(F)F)cc34)CC2)ccc2[nH]c(C#N)cc12 [MI-463] + C=C(F)C(=O)N1CCN(c2nc(OC[C@@H]3CCCN3C)nc3c2CCN(c2cccc4cccc(Cl)c24)C3)C[C@@H]1CC#N [adagrasib]
combination cScore with adagrasib (NCI-H2122): 19.7
combination cScore with adagrasib (NCI-H358): 5.31
combination cScore with adagrasib (SW837): 0.27

NC1(c2ccc(-c3nc4ccn5c(=O)[nH]nc5c4cc3-c3ccccc3)cc2)CCC1 [MK-2206] + C=C(F)C(=O)N1CCN(c2nc(OC[C@@H]3CCCN3C)nc3c2CCN(c2cccc4cccc(Cl)c24)C3)C[C@@H]1CC#N [adagrasib]
combination cScore with adagrasib (NCI-H2122): 8
combination cScore with adagrasib (NCI-H358): 6.39
combination cScore with adagrasib (SW837): 12.2

CC(C)n1nc(-c2ccc3oc(N)nc3c2)c2c(N)ncnc21 [MLN-0128] + C=C(F)C(=O)N1CCN(c2nc(OC[C@@H]3CCCN3C)nc3c2CCN(c2cccc4cccc(Cl)c24)C3)C[C@@H]1CC#N [adagrasib]
combination cScore with adagrasib (NCI-H2122): 7.57
combination cScore with adagrasib (NCI-H358): 0.5
combination cScore with adagrasib (SW837): 9.3

O=C1c2c(O)ccc(O)c2C(=O)c2c(NCCNCCO)ccc(NCCNCCO)c21 [Mitoxantrone] + C=C(F)C(=O)N1CCN(c2nc(OC[C@@H]3CCCN3C)nc3c2CCN(c2cccc4cccc(Cl)c24)C3)C[C@@H]1CC#N [adagrasib]
combination cScore with adagrasib (NCI-H2122): 12.9
combination cScore with adagrasib (NCI-H358): 0.02
combination cScore with adagrasib (SW837): 5.32
